# Measured values published in publication PMC9098524, “Structural basis of ion – substrate coupling in the Na^+-dependent dicarboxylate transporter VcINDY” (Nature Communications, 2022).
# Target: T1, VcINDY (Vibrio cholerae, UniProt Q9KNE0)
# T1 construct: gene VC_A0025
# Experiment: intrinsic tryptophan fluorescence quenching ([…] nm excitation, […] nm emission), quadratic binding fit
# Conditions: read-out: apparent Kd
compound,measurement,value
O=C(O)CCC(=O)O [succinate],Kd,92.2 ± 47.4 µM
